Results reported in patent US10537558B2 (Bantam Pharmaceutical, LLC, priority 2015, dated 2020).

System: BJAB cells
Assay: BJAB cell proliferation (Cell Titer Glo)
Assay type: cell-based
Conditions: Homo sapiens, read-out: EC50
Method in brief: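 BJAB cells exposed to serially diluted compounds (0.1% DMSO final) for about 72 h at 37 °C. Proliferation read by Cell Titer Glo luminescence as percent of untreated controls; EC50 from non-linear regression of dose-response data.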

Compound | EC50 [µM]
Cc1nn(-c2nc(-c3ccc(Cl)c(Cl)c3)c(SC(C)C)s2)c(C(=O)O)c1-c1ccc(Cl)cc1 [Compound 113, 4-(4-chlorophenyl)-1-(4-(3,4-dichlorophenyl)-5-(isopropylthio)thiazol-2-yl)-3-methyl-1H-pyrazole-5-carboxylic acid] | 10 to 25
COc1ccccc1-c1c(C)nn(-c2nc(-c3ccc(Cl)c(Cl)c3)c(SC(C)C)s2)c1C(=O)O [Compound 114, 1-(4-(3,4-dichlorophenyl)-5-(isopropylthio)thiazol-2-yl)-4-(2-methoxyphenyl)-3-methyl-1H-pyrazole-5-carboxylic acid] | 10 to 25
COc1cccc(-c2c(C)nn(-c3nc(-c4ccc(Cl)c(Cl)c4)c(SC(C)C)s3)c2C(=O)O)c1 [Compound 115, 1-(4-(3,4-dichlorophenyl)-5-(isopropylthio)thiazol-2-yl)-4-(3-methoxyphenyl)-3-methyl-1H-pyrazole-5-carboxylic Acid] | 1 to 5
COc1ccc(-c2c(C)nn(-c3nc(-c4ccc(Cl)c(Cl)c4)c(SC(C)C)s3)c2C(=O)O)cc1 [Compound 116, 1-(4-(3,4-dichlorophenyl)-5-(isopropylthio)thiazol-2-yl)-4-(4-methoxyphenyl)-3-methyl-1H-pyrazole-5-carboxylic acid] | 10 to 25
Cc1ccccc1-c1c(C)nn(-c2nc(-c3ccc(Cl)c(Cl)c3)c(SC(C)C)s2)c1C(=O)O [Compound 117, 1-(4-(3,4-dichlorophenyl)-5-(isopropylthio)thiazol-2-yl)-3-methyl-4-o-tolyl-1H-pyrazole-5-carboxylic acid] | 5 to 10
Cc1cccc(-c2c(C)nn(-c3nc(-c4ccc(Cl)c(Cl)c4)c(SC(C)C)s3)c2C(=O)O)c1 [Compound 118, 1-(4-(3,4-dichlorophenyl)-5-(isopropylthio)thiazol-2-yl)-3-methyl-4-m-tolyl-1H-pyrazole-5-carboxylic Acid] | 1 to 5
Cc1ccc(-c2c(C)nn(-c3nc(-c4ccc(Cl)c(Cl)c4)c(SC(C)C)s3)c2C(=O)O)cc1 [Compound 119, 1-(4-(3,4-dichlorophenyl)-5-(isopropylthio)thiazol-2-yl)-3-methyl-4-p-tolyl-1H-pyrazole-5-carboxylic acid] | 10 to 25
CC(=O)Nc1ccc(-c2c(C)nn(-c3nc(-c4ccc(Cl)c(Cl)c4)c(SC(C)C)s3)c2C(=O)O)cc1 [Compound 120, 4-(4-acetamidophenyl)-1-(4-(3,4-dichlorophenyl)-5-(isopropylthio)thiazol-2-yl)-3-methyl-1H-pyrazole-5-carboxylic acid] | > 50
Cc1nn(-c2nc(-c3ccc(Cl)c(Cl)c3)c(SC(C)C)s2)c(C(=O)O)c1Cc1ccccc1NS(C)(=O)=O [Compound 121, 1-(4-(3,4-dichlorophenyl)-5-(isopropylthio)thiazol-2-yl)-3-methyl-4-(2-(methylsulfonamido)benzyl)-1H-pyrazole-5-carboxylic acid] | > 50
Cc1nn(-c2nc(-c3ccc(Cl)c(Cl)c3)c(SC(C)C)s2)c(C(=O)O)c1Cc1ccccc1NS(=O)(=O)N(C)C [Compound 122, 1-(4-(3,4-dichlorophenyl)-5-(isopropylthio)thiazol-2-yl)-4-(2-(N,N-dimethylsulfamoylamino)benzyl)-3-methyl-1H-pyrazole-5-carboxylic acid] | 10 to 25
Cc1nn(-c2nc(-c3ccc(Cl)c(Cl)c3)c(SC(C)C)s2)c(C(=O)O)c1-c1ccc(N)cc1 [Compound 123, 4-(4-aminophenyl)-1-(4-(3,4-dichlorophenyl)-5-(isopropylthio)thiazol-2-yl)-3-methyl-1H-pyrazole-5-carboxylic acid] | 25 to 50
Cc1nn(-c2nc(-c3ccc(Cl)c(Cl)c3)c(SC(C)C)s2)c(C(=O)O)c1-c1ccc(NS(C)(=O)=O)cc1 [Compound 124, 1-(4-(3,4-dichlorophenyl)-5-(isopropylthio)thiazol-2-yl)-3-methyl-4-(4-(methylsulfonamido)phenyl)-1H-pyrazole-5-carboxylic acid] | > 50
Cc1nn(-c2nc(-c3ccc(Cl)c(Cl)c3)c(SC(C)C)s2)c(C(=O)O)c1-c1cccc(NS(C)(=O)=O)c1 [Compound 125, 1-(4-(3,4-dichlorophenyl)-5-(isopropylthio)thiazol-2-yl)-3-methyl-4-(3-(methylsulfonamido)phenyl)-1H-pyrazole-5-carboxylic acid] | > 50
COCCn1cc(-c2c(C)nn(-c3nc(-c4ccc(Cl)c(Cl)c4)c(SC(C)C)s3)c2C(=O)O)cn1 [Compound 126, 2-(4-(3,4-dichlorophenyl)-5-(isopropylthio)thiazol-2-yl)-2′-(2-methoxyethyl)-5-methyl-4,4′-bi(2H-pyrazole)-3-carboxylic acid] | 10 to 25
Cc1nn(-c2nc(-c3ccc(Cl)c(Cl)c3)c(SC(C)C)s2)c(C(=O)O)c1-c1cccc2cc[nH]c12 [Compound 127, 1-(4-(3,4-dichlorophenyl)-5-(isopropylthio)thiazol-2-yl)-4-(1H-indol-7-yl)-3-methyl-1H-pyrazole-5-carboxylic acid] | 5 to 10
Cc1nn(-c2nc(-c3ccc(Cl)c(Cl)c3)c(SC(C)C)s2)cc1-c1cccc2cc[nH]c12 [Compound 128, 2-(4-(1H-indol-7-yl)-3-methyl-1H-pyrazol-1-yl)-4-(3,4-dichlorophenyl)-5-(isopropylthio)thiazole] | 10 to 25
CCn1cc(-c2c(C)nn(-c3nc(-c4ccc(Cl)c(Cl)c4)c(SC(C)C)s3)c2C(=O)O)cn1 [Compound 129, 2-(4-(3,4-dichlorophenyl)-5-(isopropylthio)thiazol-2-yl)-2′-ethyl-5-methyl-4,4′-bi(2H-pyrazole)-3-carboxylic Acid] | 5 to 10
COCCNC(=O)c1c(-c2cccc(C)c2)c(C)nn1-c1nc(-c2ccc(Cl)c(Cl)c2)c(SC(C)C)s1 [Compound 130, 1-(4-(3,4-dichlorophenyl)-5-(isopropylthio)thiazol-2-yl)-N-(2-methoxyethyl)-3-methyl-4-m-tolyl-1H-pyrazole-5-carboxamide] | > 50
Cc1ccccc1-c1c(C)nn(-c2nc(-c3ccc(Cl)c(Cl)c3)c(SC(C)C)s2)c1C(=O)N1CCC(CN)CC1 [Compound 131, (4-(aminomethyl)piperidin-1-yl)(1-(4-(3,4-dichlorophenyl)-5-(isopropylthio)thiazol-2-yl)-3-methyl-4-o-tolyl-1H-pyrazol-5-yl)methanone] | 1 to 5
COc1cncc(-c2c(C)nn(-c3nc(-c4ccc(Cl)c(Cl)c4)c(SC(C)C)s3)c2C(=O)O)c1 [Compound 132, 1-(4-(3,4-dichlorophenyl)-5-(isopropylthio)thiazol-2-yl)-4-(5-methoxypyridin-3-yl)-3-methyl-1H-pyrazole-5-carboxylic acid] | 10 to 25
Cc1nn(-c2nc(-c3ccc(Cl)c(Cl)c3)c(SC(C)C)s2)c(C(=O)O)c1-c1cnn(CC(C)C)c1 [Compound 133, 2-(4-(3,4-dichlorophenyl)-5-(isopropylthio)thiazol-2-yl)-2′-isobutyl-5-methyl-4,4′-bi(2H-pyrazole)-3-carboxylic acid] | 10 to 25
CNc1cc(-c2c(C)nn(-c3nc(-c4ccc(Cl)c(Cl)c4)c(SC(C)C)s3)c2C(=O)O)ccn1 [Compound 134, 1-(4-(3,4-dichlorophenyl)-5-(isopropylthio)thiazol-2-yl)-3-methyl-4-(2-(methylamino)pyridin-4-yl)-1H-pyrazole-5-carboxylic acid] | 10 to 25
Cc1nn(-c2nc(-c3ccc(Cl)c(Cl)c3)c(SC(C)C)s2)c(C(=O)O)c1-c1cnn(C(=O)N(C)C)c1 [Compound 135, 1-(4-(3,4-dichlorophenyl)-5-(isopropylthio)thiazol-2-yl)-1′-(dimethylcarbamoyl)-3-methyl-1H,1′H-[4,4′-bipyrazole]-5-carboxylic acid] | 25 to 50
Cc1nn(-c2nc(-c3ccc(Cl)c(Cl)c3)c(SC(C)C)s2)c(C(=O)N2CCC(CN)CC2)c1-c1cc(C(F)(F)F)cc(C(F)(F)F)c1 [Compound 136, (4-(aminomethyl)piperidin-1-yl)(4-(3,5-bis(trifluoromethyl)phenyl)-1-(4-(3,4-dichlorophenyl)-5-(isopropylthio)thiazol-2-yl)-3-methyl-1H-pyrazol-5-yl)methanone] | 1 to 5
Cc1nn(-c2nc(-c3ccc(Cl)c(Cl)c3)c(SC(C)C)s2)c(C(=O)N(C)CCN)c1-c1cc(C(F)(F)F)cc(C(F)(F)F)c1 [Compound 137, N-(2-aminoethyl)-4-(3,5-bis(trifluoromethyl)phenyl)-1-(4-(3,4-dichlorophenyl)-5-(isopropylthio)thiazol-2-yl)-N,3-dimethyl-1H-pyrazole-5-carboxamide] | 1 to 5
Cc1nn(-c2nc(-c3ccc(Cl)c(Cl)c3)c(SC(C)C)s2)c(C(=O)N2CC(N)C2)c1-c1cc(C(F)(F)F)cc(C(F)(F)F)c1 [Compound 138, (3-aminoazetidin-1-yl)(4-(3,5-bis(trifluoromethyl)phenyl)-1-(4-(3,4-dichlorophenyl)-5-(isopropylthio)thiazol-2-yl)-3-methyl-1H-pyrazol-5-yl)methanone] | 10 to 25
Cc1nn(-c2nc(-c3ccc(Cl)c(Cl)c3)c(SC(C)C)s2)c(C(=O)N2CCOCC2)c1-c1cc(C(F)(F)F)cc(C(F)(F)F)c1 [Compound 139, (4-(3,5-bis(trifluoromethyl)phenyl)-1-(4-(3,4-dichlorophenyl)-5-(isopropylthio)thiazol-2-yl)-3-methyl-1H-pyrazol-5-yl)(morpholino)methanone] | 10 to 25
Cc1nn(-c2nc(-c3ccc(Cl)c(Cl)c3)c(SC(C)C)s2)c(C(=O)N(C)C)c1-c1cc(C(F)(F)F)cc(C(F)(F)F)c1 [Compound 140, 4-(3,5-bis(trifluoromethyl)phenyl)-1-(4-(3,4-dichlorophenyl)-5-(isopropylthio)thiazol-2-yl)-N,N,3-trimethyl-1H-pyrazole-5-carboxamide] | > 40
Cc1nn(-c2nc(-c3ccc(Cl)c(Cl)c3)c(SC(C)C)s2)c(C(=O)N2CCC(CO)CC2)c1-c1cc(C(F)(F)F)cc(C(F)(F)F)c1 [Compound 141, (4-(3,5-bis(trifluoromethyl)phenyl)-1-(4-(3,4-dichlorophenyl)-5-(isopropylthio)thiazol-2-yl)-3-methyl-1H-pyrazol-5-yl)(4-(hydroxymethyl)piperidin-1-yl)methanone] | > 40
